Structures are written as SMILES. In brackets after ≈: the same amount, converted by molar mass.

The first assay relates to M. tuberculosis Spec. 210. The experiment in a line: Tuberculostatic activity, Microplate Alamar Blue Assay (MABA). Format: cell-based, Mycobacterium tuberculosis. Particulars: M. tuberculosis Spec. 210, patient isolate resistant to PAS, INH, ETB, RMP. On the procedure: The synthesized compounds were examined in vitro for their tuberculostatic activity using MABA method (Microplate Alamar Blue Assay method). […] The inoculum was prepared from fresh LJ culture in Middlebrook 7H9 Broth medium with OADC, adjusted to a no. 1 McFarland tube, and diluted 1:20. […] Each test compound stock solution was diluted in Middlebrook 7H9 Broth medium with OADC by fourfold, the final highest concentration to be tested. Compounds were diluted serially in sterile 96-well microtiter plates using 100 μL Middlebrook 7H9 Broth medium with OADC. […] A growth control containing no antibiotic and a sterile control without inoculation were also prepared on each plate. The plates were incubated at 37 °C for a week. After the incubation period, 30 μL of Alamar blue solution was added to each well, and the plate was re-incubated for 24 h. Growth is indicated by a color change from blue to pink and the lowest concentration of compound that prevented the color change was noted as its MIC. Isoniazid (INH), Rifampicin (RMP), Streptomycin (SM), and Ethambutol (EMB) as reference drugs were used for comparison.
A general note: Resazurin is reduced to fluorescent resorufin, in cell work by metabolically active cells.
As usually defined, the MIC is the smallest concentration in the dilution series that meets the test's criterion for growth inhibition. Compound `CC(NC(=S)[N-]c1cccc(C(F)(F)F)c1)c1ccccc1.CC(NC(=S)[N-]c1cccc(C(F)(F)F)c1)c1ccccc1.[Cu+2]` (racemic) [Cu2, Copper(II) Complex with 1-(1-phenylethyl)-3-[3-(trifluoromethyl)phenyl]thiourea] showed an MIC of 8 mg/L.
In turn, `FC(F)(F)c1cccc([N-]C(=S)Nc2cccc(Br)c2)c1.FC(F)(F)c1cccc([N-]C(=S)Nc2cccc(Br)c2)c1.[Cu+2]` [Cu4, Copper(II) Complex with 1-(3-bromophenyl)-3-[3-(trifluoromethyl)phenyl] thiourea] showed an MIC of 4 mg/L.
For the compound `FC(F)(F)c1cccc([N-]C(=S)NCc2ccccc2)c1.FC(F)(F)c1cccc([N-]C(=S)NCc2ccccc2)c1.[Cu+2]` [Cu3, Copper(II) Complex with 1-benzyl-3-[3-(trifluoromethyl)phenyl]thiourea], the minimum inhibitory concentration (MIC) stood at 16 mg/L.
As for `FC(F)(F)c1cccc([N-]C(=S)NCCc2ccccc2)c1.FC(F)(F)c1cccc([N-]C(=S)NCCc2ccccc2)c1.O.[Cu+2]` [Cu1, Copper(II) Complex with 1-(2-phenylethyl)-3-[3-(trifluoromethyl)phenyl]thiourea], the MIC was determined as 16 mg/L.
The compound `O.O=[N+]([O-])c1cc(NC(=S)[N-]c2cccc(C(F)(F)F)c2)ccc1Cl.O=[N+]([O-])c1cc(NC(=S)[N-]c2cccc(C(F)(F)F)c2)ccc1Cl.[Cu+2]` [Cu5, Copper(II) Complex with 1-(4-chloro-3-nitrophenyl)-3-[3-(trifluoromethyl)phenyl]thiourea] came in with an MIC of 4 mg/L.

The assay is the same for the next values; noted with them: Mycobacterium tuberculosis, M. tuberculosis Spec. 210, patient isolate resistant to PAS, INH, ETB, RMP, read-out: MIC.
For the compound `NNC(=O)c1ccncc1` [Isoniazid (INH), Isoniazid, reference compound], the MIC was determined as 16 mg/L (≈ 117 µM).
For the compound `CC[C@@H](CO)NCCN[C@@H](CC)CO` [Ethambutol (EMB), Ethambutol, reference compound], the MIC is 32 mg/L (≈ 157 µM).
For `CO[C@H]1/C=C/O[C@@]2(C)Oc3c(C)c(O)c4c(O)c(c(/C=N/N5CCN(C)CC5)c(O)c4c3C2=O)NC(=O)/C(C)=C\C=C\[C@H](C)[C@H](O)[C@@H](C)[C@@H](O)[C@@H](C)[C@H](OC(C)=O)[C@@H]1C` [Rifampicin (RMP), Rifampicin, reference compound], the MIC is 32 mg/L (≈ 38.9 µM).
For the compound `[H]/N=C(/N)N[C@H]1[C@H](O)[C@@H](O)[C@H](O[C@@H]2O[C@@H](C)[C@](O)(C=O)[C@H]2O[C@@H]2O[C@@H](CO)[C@H](O)[C@@H](O)[C@@H]2NC)[C@@H](N/C(N)=N\[H])[C@@H]1O` [Streptomycin (SM), Streptomycin, reference compound], the MIC came to 16 mg/L (≈ 27.5 µM).

Values taken from paper PMC9779606, “Synthesis, Structural Characterization and Biological Activity Evaluation of Novel Cu(II) Complexes with 3-(trifluoromethyl)phenylthiourea Derivatives” (International Journal of Molecular Sciences, 2022).
